From ChEMBL document CHEMBL5303573, “Mapping human microbiome drug metabolism by gut bacteria and their genes” (Nature, 2019)

What was measured:
[1] = The drug is tested on Dorea formicigenerans strain: ATCC27755 for biotransformation. The drug concentrations were measured before and after a 12-h incubation by liquid-chromatography-coupled mass spectrometry (LC–MS); conditions: 2 µM
[2] = The drug is tested on Collinsella aerofaciens strain: ATCC25986 for biotransformation. The drug concentrations were measured before and after a 12-h incubation by liquid-chromatography-coupled mass spectrometry (LC–MS); conditions: 2 µM
[3] = The drug is tested on Eubacterium rectale strain: ATCC33656 for biotransformation. The drug concentrations were measured before and after a 12-h incubation by liquid-chromatography-coupled mass spectrometry (LC–MS); conditions: agathobacter rectalis, 2 µM
[4] = The drug is tested on Ruminococcus gnavus strain: ATCC29149 for biotransformation. The drug concentrations were measured before and after a 12-h incubation by liquid-chromatography-coupled mass spectrometry (LC–MS); conditions: mediterraneibacter gnavus, 2 µM
[5] = The drug is tested on Providencia stuartii strain: ATCC25827 for biotransformation. The drug concentrations were measured before and after a 12-h incubation by liquid-chromatography-coupled mass spectrometry (LC–MS); conditions: 2 µM
[6] = The drug is tested on Bacteroides fragilis strain: HMW615 for biotransformation. The drug concentrations were measured before and after a 12-h incubation by liquid-chromatography-coupled mass spectrometry (LC–MS); conditions: 2 µM
[7] = The drug is tested on Blautia hansenii strain: DSM20583 for biotransformation. The drug concentrations were measured before and after a 12-h incubation by liquid-chromatography-coupled mass spectrometry (LC–MS); conditions: 2 µM
[8] = segatella copri, 12 h, 2 µM
Description: The drug is tested on Prevotella copri strain: DSM18205 for biotransformation. The drug concentrations were measured before and after a 12-h incubation by liquid-chromatography-coupled mass spectrometry (LC–MS)

[9] = roseburia intestinalis, 12 h, 2 µM
Description: The drug is tested on Roseburia intestinalis strain: L1-82 for biotransformation. The drug concentrations were measured before and after a 12-h incubation by liquid-chromatography-coupled mass spectrometry (LC–MS)

[10] = The drug is tested on Parabacteroides merdae strain: ATCC43184 for biotransformation. The drug concentrations were measured before and after a 12-h incubation by liquid-chromatography-coupled mass spectrometry (LC–MS); conditions: 2 µM
[11] = parabacteroides johnsonii, 12 h, 2 µM
Description: The drug is tested on Parabacteroides johnsonii strain: DSM18315 for biotransformation. The drug concentrations were measured before and after a 12-h incubation by liquid-chromatography-coupled mass spectrometry (LC–MS)

[12] = The drug is tested on Ruminococcus lactaris strain: ATCC29176 for biotransformation. The drug concentrations were measured before and after a 12-h incubation by liquid-chromatography-coupled mass spectrometry (LC–MS); conditions: 2 µM
[13] = enterocloster bolteae, 12 h, 2 µM
Description: The drug is tested on Clostridium bolteae strain: ATCCBAA-613 for biotransformation. The drug concentrations were measured before and after a 12-h incubation by liquid-chromatography-coupled mass spectrometry (LC–MS)

[14] = The drug is tested on Bacteroides vulgatus strain: ATCC8482 for biotransformation. The drug concentrations were measured before and after a 12-h incubation by liquid-chromatography-coupled mass spectrometry (LC–MS); conditions: phocaeicola vulgatus, 2 µM
[15] = bacteroides fragilis, 12 h, 2 µM
Description: The drug is tested on Bacteroides fragilis strain: NCTC 9343 for biotransformation. The drug concentrations were measured before and after a 12-h incubation by liquid-chromatography-coupled mass spectrometry (LC–MS)

[16] = The drug is tested on Clostridium sporogenes strain: ATCC15579 for biotransformation. The drug concentrations were measured before and after a 12-h incubation by liquid-chromatography-coupled mass spectrometry (LC–MS); conditions: 2 µM
[17] = bacteroides fragilis, 12 h, 2 µM; remark: listed apart in the source
Description: The drug is tested on Bacteroides fragilis strain: 3397 (T10) for biotransformation. The drug concentrations were measured before and after a 12-h incubation by liquid-chromatography-coupled mass spectrometry (LC–MS)

[18] = The drug is tested on Alistipes indistinctus strain: DSM22520 for biotransformation. The drug concentrations were measured before and after a 12-h incubation by liquid-chromatography-coupled mass spectrometry (LC–MS); conditions: 2 µM

SMILES | Bacterial Biotransformation [1] | Bacterial Biotransformation [2] | Bacterial Biotransformation [3] | Bacterial Biotransformation [4] | Bacterial Biotransformation [5] | Bacterial Biotransformation [6] | Bacterial Biotransformation [7] | Bacterial Biotransformation [8] | Bacterial Biotransformation [9] | Bacterial Biotransformation [10] | Bacterial Biotransformation [11] | Bacterial Biotransformation [12] | Bacterial Biotransformation [13] | Bacterial Biotransformation [14] | Bacterial Biotransformation [15] | Bacterial Biotransformation [16] | Bacterial Biotransformation [17] | Bacterial Biotransformation [18]
NC12CC3CC(CC(C3)C1)C2 [AMANTADINE] | Compound NOT metabolized | Compound NOT metabolized | Compound NOT metabolized | Compound NOT metabolized | Compound NOT metabolized | Compound NOT metabolized | Compound NOT metabolized | Compound NOT metabolized | Compound NOT metabolized | Compound NOT metabolized | Compound NOT metabolized | Compound NOT metabolized | Compound NOT metabolized | Compound NOT metabolized |  |  |  | 
CCC1(c2ccc(N)cc2)CCC(=O)NC1=O (centres undefined) [AMINOGLUTETHIMIDE] | Compound NOT metabolized | Compound NOT metabolized | Compound NOT metabolized | Compound NOT metabolized | Compound NOT metabolized | Compound NOT metabolized | Compound NOT metabolized | Compound NOT metabolized | Compound NOT metabolized | Compound NOT metabolized | Compound NOT metabolized | Compound NOT metabolized | Compound NOT metabolized | Compound NOT metabolized | Compound NOT metabolized |  |  | 
CC(C)NCC(O)COc1ccc(CC(N)=O)cc1 (centres undefined) [ATENOLOL] | Compound NOT metabolized | Compound NOT metabolized | Compound NOT metabolized | Compound NOT metabolized | Compound NOT metabolized |  |  | Compound NOT metabolized | Compound NOT metabolized |  | Compound NOT metabolized |  | Compound NOT metabolized | Compound NOT metabolized | Compound NOT metabolized | Compound NOT metabolized |  | 
CC(C)NCC(O)COc1ccc(CCOCC2CC2)cc1 (centres undefined) [BETAXOLOL] | Compound NOT metabolized | Compound NOT metabolized | Compound NOT metabolized | Compound NOT metabolized | Compound NOT metabolized | Compound NOT metabolized |  |  | Compound NOT metabolized | Compound NOT metabolized |  | Compound NOT metabolized | Compound NOT metabolized |  | Compound NOT metabolized | Compound NOT metabolized | Compound NOT metabolized | Compound NOT metabolized
CC(C)NCC(O)COc1ccc(COCCOC(C)C)cc1.CC(C)NCC(O)COc1ccc(COCCOC(C)C)cc1.O=C(O)/C=C/C(=O)O (centres undefined) [BISOPROLOL FUMARATE] | Compound NOT metabolized | Compound NOT metabolized | Compound NOT metabolized | Compound NOT metabolized | Compound NOT metabolized | Compound NOT metabolized |  | Compound NOT metabolized | Compound NOT metabolized | Compound NOT metabolized | Compound NOT metabolized | Compound NOT metabolized | Compound NOT metabolized | Compound NOT metabolized | Compound NOT metabolized | Compound NOT metabolized | Compound NOT metabolized | Compound NOT metabolized
CN(C)CCOC(c1ccc(Cl)cc1)c1ccccn1.O=C(O)/C=C\C(=O)O (centres undefined) [CARBINOXAMINE MALEATE] | Compound NOT metabolized | Compound NOT metabolized |  | Compound NOT metabolized | Compound NOT metabolized | Compound NOT metabolized | Compound NOT metabolized | Compound NOT metabolized | Compound NOT metabolized | Compound NOT metabolized | Compound NOT metabolized | Compound NOT metabolized | Compound NOT metabolized | Compound NOT metabolized | Compound NOT metabolized | Compound NOT metabolized | Compound NOT metabolized | 
CCCC(C)(COC(N)=O)COC(=O)NC(C)C (centres undefined) [CARISOPRODOL] | Compound NOT metabolized | Compound metabolized | Compound NOT metabolized | Compound NOT metabolized | Compound NOT metabolized | Compound metabolized | Compound metabolized | Compound metabolized | Compound metabolized | Compound NOT metabolized |  |  | Compound NOT metabolized | Compound metabolized | Compound metabolized |  | Compound metabolized | Compound NOT metabolized
CN/C(=N/CCSCc1nc[nH]c1C)NC#N [CIMETIDINE] | Compound NOT metabolized | Compound NOT metabolized | Compound NOT metabolized | Compound NOT metabolized | Compound NOT metabolized |  | Compound NOT metabolized |  | Compound NOT metabolized | Compound NOT metabolized |  | Compound NOT metabolized | Compound NOT metabolized |  | Compound NOT metabolized |  | Compound metabolized | Compound NOT metabolized
Br.CN(C)CCCC1(c2ccc(F)cc2)OCc2cc(C#N)ccc21 (centres undefined) [CITALOPRAM HYDROBROMIDE] | Compound NOT metabolized | Compound NOT metabolized | Compound NOT metabolized | Compound NOT metabolized | Compound NOT metabolized | Compound NOT metabolized |  | Compound NOT metabolized | Compound NOT metabolized | Compound NOT metabolized | Compound NOT metabolized | Compound NOT metabolized | Compound NOT metabolized | Compound NOT metabolized | Compound NOT metabolized | Compound NOT metabolized | Compound NOT metabolized | Compound NOT metabolized
Clc1cccc(Cl)c1N=C1NCCN1 [CLONIDINE] | Compound NOT metabolized | Compound NOT metabolized | Compound NOT metabolized | Compound NOT metabolized | Compound NOT metabolized | Compound metabolized |  | Compound NOT metabolized | Compound NOT metabolized | Compound NOT metabolized | Compound NOT metabolized | Compound NOT metabolized | Compound NOT metabolized |  | Compound metabolized | Compound NOT metabolized | Compound metabolized | 
CCOC(=O)[C@H](CCc1ccccc1)N[C@@H](C)C(=O)N1[C@H](C(=O)O)C[C@H]2CCCC[C@@H]21 [TRANDOLAPRIL] | Compound NOT metabolized | Compound NOT metabolized | Compound NOT metabolized | Compound NOT metabolized | Compound NOT metabolized | Compound metabolized |  | Compound metabolized | Compound NOT metabolized | Compound NOT metabolized |  | Compound NOT metabolized | Compound metabolized | Compound metabolized | Compound metabolized | Compound metabolized | Compound metabolized | Compound NOT metabolized
